Key:
NCI-H522 = test: Growth inhibition of human NCI-H522 cells incubated for 48 hrs by sulforhodamine B assay; type: functional, cell-based; conditions: NCI-H522, 48 h
Malme-3M = test: Growth inhibition of human MALME-3M cells assessed as cell growth at 0.1 uM incubated for 48 hrs by sulforhodamine B assay relative to control; type: functional; conditions: read-out: Activity
SF-268 [1] = test: Growth inhibition of human SF268 cells assessed as cell growth at 100 uM incubated for 48 hrs by sulforhodamine B assay relative to control; type: functional; conditions: SF-268, 48 h, read-out: Activity
UACC-62 [2] = test: Growth inhibition of human UACC62 cells incubated for 48 hrs by sulforhodamine B assay; type: functional, cell-based; conditions: UACC-62, 48 h
IGROV-1 = test: Growth inhibition of human IGROV1 cells assessed as cell growth at 1 uM incubated for 48 hrs by sulforhodamine B assay relative to control; type: functional; conditions: IGROV-1, 48 h, read-out: Activity
OVCAR-5 [3] = test: Growth inhibition of human OVCAR5 cells incubated for 48 hrs by sulforhodamine B assay; type: functional, cell-based; conditions: OVCAR-5, 48 h
UACC-62 [4] = test: Growth inhibition of human UACC62 cells assessed as cell growth at 100 uM incubated for 48 hrs by sulforhodamine B assay relative to control; type: functional; conditions: UACC-62, 48 h, read-out: Activity
KM12 = test: Growth inhibition of human KM12 cells assessed as cell growth at 1 uM incubated for 48 hrs by sulforhodamine B assay relative to control; type: functional; conditions: KM12, 48 h, read-out: Activity
UACC-62 [5] = test: Growth inhibition of human UACC62 cells assessed as cell growth at 0.01 uM incubated for 48 hrs by sulforhodamine B assay relative to control; type: functional; conditions: UACC-62, 48 h, read-out: Activity
OVCAR-4 [6] = test: Growth inhibition of human OVCAR4 cells incubated for 48 hrs by sulforhodamine B assay; type: functional, cell-based; conditions: OVCAR-4, 48 h
OVCAR-5 [7] = test: Growth inhibition of human OVCAR5 cells assessed as cell growth at 100 uM incubated for 48 hrs by sulforhodamine B assay relative to control; type: functional; conditions: OVCAR-5, 48 h, read-out: Activity
SNB-19 = test: Growth inhibition of human SNB19 cells assessed as cell growth at 100 uM incubated for 48 hrs by sulforhodamine B assay relative to control; type: functional; conditions: SNB-19, 48 h, read-out: Activity
K562 = test: Growth inhibition of human K562 cells incubated for 48 hrs by sulforhodamine B assay; type: functional, cell-based; conditions: K562, 48 h
OVCAR-8 = test: Growth inhibition of human OVCAR8 cells assessed as cell growth at 1 uM incubated for 48 hrs by sulforhodamine B assay relative to control; type: functional; conditions: OVCAR-8, 48 h, read-out: Activity
CCRF-CEM = test: Growth inhibition of human CCRF-CEM cells assessed as cell growth at 0.01 uM incubated for 48 hrs by sulforhodamine B assay relative to control; type: functional; conditions: read-out: Activity
HCT-116 = test: Growth inhibition of human HCT116 cells assessed as cell growth at 100 uM incubated for 48 hrs by sulforhodamine B assay relative to control; type: functional; conditions: HCT-116, 48 h, read-out: Activity
SF-268 [8] = test: Growth inhibition of human SF268 cells incubated for 48 hrs by sulforhodamine B assay; type: functional, cell-based; conditions: SF-268, 48 h
OVCAR-4 [9] = test: Growth inhibition of human OVCAR4 cells assessed as cell growth at 0.1 uM incubated for 48 hrs by sulforhodamine B assay relative to control; type: functional; conditions: OVCAR-4, 48 h, read-out: Activity
U-251 [10] = test: Growth inhibition of human U251 cells assessed as cell growth at 0.1 uM incubated for 48 hrs by sulforhodamine B assay relative to control; type: functional; conditions: U-251, 48 h, read-out: Activity
M14 = test: Growth inhibition of human M14 cells assessed as cell growth at 0.01 uM incubated for 48 hrs by sulforhodamine B assay relative to control; type: functional; conditions: M14, 48 h, read-out: Activity
SK-MEL-28 = test: Growth inhibition of human SK-MEL-28 cells assessed as cell growth at 100 uM incubated for 48 hrs by sulforhodamine B assay relative to control; type: functional; conditions: SK-MEL-28, 48 h, read-out: Activity
SK-MEL-2 = test: Growth inhibition of human SK-MEL-2 cells assessed as cell growth at 0.1 uM incubated for 48 hrs by sulforhodamine B assay relative to control; type: functional; conditions: SK-MEL-2, 48 h, read-out: Activity
BT-549 = test: Growth inhibition of human BT549 cells assessed as cell growth at 0.01 uM incubated for 48 hrs by sulforhodamine B assay relative to control; type: functional; conditions: BT-549, 48 h, read-out: Activity
U-251 [11] = test: Growth inhibition of human U251 cells assessed as cell growth at 100 uM incubated for 48 hrs by sulforhodamine B assay relative to control; type: functional; conditions: U-251, 48 h, read-out: Activity
RPMI-8226 = test: Growth inhibition of human RPMI8226 cells assessed as cell growth at 0.1 uM incubated for 48 hrs by sulforhodamine B assay relative to control; type: functional; conditions: RPMI-8226, 48 h, read-out: Activity
COLO 205 = test: Growth inhibition of human COLO205 cells incubated for 48 hrs by sulforhodamine B assay; type: functional, cell-based; conditions: COLO 205, 48 h
LOX IMVI = test: Growth inhibition of human LOXIMVI cells assessed as cell growth at 0.1 uM incubated for 48 hrs by sulforhodamine B assay relative to control; type: functional; conditions: read-out: Activity
PC-3 = test: Growth inhibition of human PC3 cells assessed as cell growth at 0.01 uM incubated for 48 hrs by sulforhodamine B assay relative to control; type: functional; conditions: PC-3, 48 h, read-out: Activity
[12] = read-out: LC50 (the source's name)
[13] = read-out: pLC50 (the source's name) (converted)

Compound: O=C(Nc1cccc(-n2cc(-c3ccncc3)c(-c3cc(O)cc(Cl)c3)n2)c1)Nc1ccc(Cl)c(Cl)c1
- GI50 (NCI-H522; read-out: GI50): 1.1 µM
- CC50 (NCI-H522; [12]): 5.99 µM
- TGI (NCI-H522; read-out: TGI): 31.4 µM
- GI50 (NCI-H522; read-out: pGI50 (converted)): 1.1 µM
- CC50 (NCI-H522; [13]): 8.91 µM
- TGI (NCI-H522; read-out: pTGI (converted)): 3.16 µM
- growth at 0.1 µM (Malme-3M): 84%
- growth at 100 µM (SF-268 [1]): -11%
- IC50 (UACC-62 [2]): 1.69 µM
- GI50 (UACC-62 [2]; read-out: GI50): 1.59 µM
- CC50 (UACC-62 [2]; [12]): 5.38 µM
- TGI (UACC-62 [2]; read-out: TGI): 37.6 µM
- GI50 (UACC-62 [2]; read-out: pGI50 (converted)): 1.7 µM
- CC50 (UACC-62 [2]; [13]): 8.32 µM
- TGI (UACC-62 [2]; read-out: pTGI (converted)): 3.72 µM
- growth at 1 µM (IGROV-1): 95%
- GI50 (OVCAR-5 [3]; read-out: GI50): 2.14 µM
- CC50 (OVCAR-5 [3]; [12]): 5.42 µM
- TGI (OVCAR-5 [3]; read-out: TGI): 51.6 µM
- GI50 (OVCAR-5 [3]; read-out: pGI50 (converted)): 2.14 µM
- CC50 (OVCAR-5 [3]; [13]): 53.7 µM
- TGI (OVCAR-5 [3]; read-out: pTGI (converted)): 6.17 µM
- growth at 100 µM (UACC-62 [4]): -74%
- growth at 1 µM (KM12): 72%
- growth at 0.01 µM (UACC-62 [5]): 96%
- GI50 (OVCAR-4 [6]; read-out: GI50): 2.9 µM
- CC50 (OVCAR-4 [6]; [12]): > 100 µM
- GI50 (OVCAR-4 [6]; read-out: pGI50 (converted)): 2.95 µM
- CC50 (OVCAR-4 [6]; [13]): > 100 µM
- growth at 100 µM (OVCAR-5 [7]): -80%
- growth at 100 µM (SNB-19): -26%
- GI50 (K562; read-out: GI50): 2.56 µM
- LC50 (K562; read-out: LC50): > 100 µM
- TGI (K562; read-out: TGI): > 100 µM
- GI50 (K562; read-out: pGI50 (converted)): 2.57 µM
- LC50 (K562; read-out: pLC50 (converted)): > 100 µM
- TGI (K562; read-out: pTGI (converted)): > 100 µM
- growth at 1 µM (OVCAR-8): 56%
- growth at 0.01 µM (CCRF-CEM): 96%
- growth at 100 µM (HCT-116): -61%
- GI50 (SF-268 [8]; read-out: GI50): 3.22 µM
- CC50 (SF-268 [8]; [12]): > 100 µM
- TGI (SF-268 [8]; read-out: TGI): 32.6 µM
- GI50 (SF-268 [8]; read-out: pGI50 (converted)): 3.24 µM
- CC50 (SF-268 [8]; [13]): > 100 µM
- TGI (SF-268 [8]; read-out: pTGI (converted)): 33.1 µM
- growth at 0.1 µM (OVCAR-4 [9]): 95%
- growth at 0.1 µM (U-251 [10]): 93%
- growth at 0.01 µM (M14): 99%
- growth at 100 µM (SK-MEL-28): -52%
- growth at 0.1 µM (SK-MEL-2): 96%
- growth at 0.01 µM (BT-549): 94%
- growth at 100 µM (U-251 [11]): -57%
- growth at 0.1 µM (RPMI-8226): 103%
- GI50 (COLO 205; read-out: GI50): 1.96 µM
- CC50 (COLO 205; [12]): 7.29 µM
- TGI (COLO 205; read-out: TGI): 37.8 µM
- GI50 (COLO 205; read-out: pGI50 (converted)): 1.95 µM
- CC50 (COLO 205; [13]): 7.24 µM
- TGI (COLO 205; read-out: pTGI (converted)): 3.8 µM
- growth at 0.1 µM (LOX IMVI): 105%
- growth at 0.01 µM (PC-3): 90%
